From patent US20260097029A1, “Tetrahydroquinoline Compounds As Antitumor Agents” (priority 2022, published 2026)
Read-outs that look alike come from different tables or passages of the source.

Assays:
Type in all cases: cell-based
[1] = system: ALT-positive, telomerase-positive, ALT- and telomerase-positive, and normal cell lines; test: Proliferation and cell death across panel of ALT-positive, telomerase-positive, ALT- and telomerase-positive and normal cell lines; conditions: for toxicity across cell lines (FIG. 5): 0-25 μM, different cell lines
Method: (§1) U2OS cells were treated with compounds 1, 2, 14, and 32 at concentrations of 0, 0.625, 1.25, 2.5, 5, 10, 15, 20 and 25 μM. Cell proliferation (confluency) and cytotoxicity (CellTox™ Green confluency) were assessed using the IncuCyte® live cell imaging platform. Cell death was calculated as a percentage of overall confluency, using CellTox™ Green confluency as a percentage of total cell confluence. Cell toxicity measurements were capped at the time point at which cells reached complete confluency. This was to account for cell death due to over-confluency of cells, rather than as a result of compounds' effects. The same experiments were also performed on a list of ALT-positive, telomerase-positive, ALT- and telomerase-positive, and normal cell lines. For the ALT-positive cell lines GM847, SK—N—FI, HuO9, Saos-2, CAL72, IIICF/c, and HS729 were employed. For the telomerase-positive cells HCT116, HeLa, HT1080, SK—N—Be2, and SK—N-AS, and KELLY were used. For the ALT-positive/telomerase-positive and mortal cell strains GM847 hTERT, MRC-5, and IMR-90 were employed.

U2OS cells [2] = test: U2OS cell proliferation (confluency), IncuCyte live cell imaging; conditions: for IC50: confluency, read-out: IC50 (concentration of drug that inhibits 50% of cell growth)
Method: as §1

U2OS cells [3] = test: U2OS cytotoxicity / cell death (CellTox Green confluency), IncuCyte; conditions: Homo sapiens, read-out: EC50 (concentration that effectively causes 50% of cell death)
Method: as §1

FANCM-BTR interaction = target: T1, FANCM-BTR interaction (Homo sapiens, UniProt Q8IYD8+Q9H9A7); test: Co-immunoprecipitation with RMI1 antibody in U2OS cells, western blot; conditions: treatment at the IC50 concentration, 72 hours
T1 construct: endogenous in cells; host or cells: U2OS
Method: To determine whether the compounds disrupt the FANCM-BTR interaction, co-immunoprecipitation experiments using the RMI1 antibody were performed in the presence and absence of compounds 1, 2, 14, 32, and the already reported compound PIP-199 treatments as well as the scambled, siFANCM and DMSO. This method provides information indicating the direct binding of proteins and is highly specific and simple to perform. U2OS cells were seeded at 50% confluency in 150 cm^2 flasks (BD Falcon). After 24 hours, cells were treated with scrambled, siFANCM and DMSO (0.3%, determined by the maximal DMSO concentration present in drugs) treatments, and 2, 14, 32, PIP-199 treatments at their IC50 concentrations. After 72 hours, cells were washed once with warm PBS, trypsinised for 5 minutes at 37° C., resuspended in media and counted using a Beckman Coulter cell counter. Cells were collected in pellets in Protein Lobind tubes (Eppendorf) by centrifugation at 200×g at 4° C. and supernatant was discarded. […]
The Dynabeads®-Ab-protein complex was washed three times using 200 μL ice cold Lysis Buffer B for each wash. […] The eluates were analysed by western blot and the data was quantitated using ImageJ software (National Institutes of Health). Eluates were expressed as a percentage of their respective lysates to show relative differences between treatments.

SMILES	toxicity across cell lines (FIG. 5) [1]	IC50 (U2OS cells [2]; Homo sapiens, U2OS)	IC50 (U2OS cells [2])	inhibition of U2OS cell viability (U2OS cells [2]; preliminary cell-based assays)	EC50 (U2OS cells [3])	comparison of IC50 and EC50 values across the panel of cell lines ([1]; ALT-positive vs telomerase-positive, ALT/telomerase-positive and mortal cell lines)	FANCM levels co-immunoprecipitated with RMI1 (FANCM-BTR interaction)
CCN1CCCc2cc(CN(C3CCCC3)S(=O)(=O)c3ccc(CCOC)cc3)ccc21 [Compound 14, N-cyclopentyl-N-((1-ethyl-1,2,3,4-tetrahydroquinolin-6-yl)methyl)-4-(2-methoxy-ethyl)benzenesulfonamide]	concentration-dependent toxicity that is partly selective to the ALT cell lines						
CCN1CCCc2cc(CN(C3CCCC3)S(=O)(=O)c3cccc([N+](=O)[O-])c3)ccc21 [Compound 1, N-cyclopentyl-N-((1-ethyl-1,2,3,4-tetrahydroquinolin-6-yl)methyl)-3-nitrobenzenesulfon-amide]	concentration-dependent toxicity that is partly selective to the ALT cell lines						
CCN1CCCc2cc(CN(C3CCCC3)S(=O)(=O)c3ccc(NCc4c[nH]cn4)cc3)ccc21 [Compound 32, 4-(((1H-imidazol-4-yl)methyl)amino)-N-cyclopentyl-N-((1-ethyl-1,2,3,4-tetrahydroquinolin-6-yl)methyl)benzenesulfonamide]		15.5 µM	15.5 µM	shows inhibition of U2OS cell viability	1.36 µM	selective induction of ALT-cell death	decrease in FANCM levels
